Laboratory results: ChEMBL document CHEMBL1201862, “PubChem BioAssay data set” (2004)
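These data come from cells grown in 96-well plates and exposed to compound for 48 hours at five concentrations. Abbreviation: GI50, concentration required for 50% inhibition of growth.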 Activity calls are given as the source filed them. Rule as the data show it: active = GI50 up to about 1.1 µM and inactive = higher.

Experiments:
Experiment in all cases: NCI tumour cell line growth inhibition, 48 h
DLD-1 = tested on: DLD-1
EKVX = tested on: EKVX
HCC 2998 = tested on: HCC 2998
HT-29 = tested on: HT-29
IGROV-1 = tested on: IGROV-1
KM-20L2 = tested on: KM-20L2
NCI-H226 = tested on: NCI-H226
NCI-H23 = tested on: NCI-H23
NCI-H460 = tested on: NCI-H460
NCI-H522 = tested on: NCI-H522
OVCAR-8 = tested on: OVCAR-8
RPMI-8226 = tested on: RPMI-8226
RXF 393 = tested on: RXF 393
SN12C = tested on: SN12C
SNB-19 = tested on: SNB-19
TK-10 = tested on: TK-10
UACC-62 = tested on: UACC-62

SMILES	GI50 (DLD-1)	GI50 (EKVX)	GI50 (HCC 2998)	GI50 (HT-29)	GI50 (IGROV-1)	GI50 (KM-20L2)	GI50 (NCI-H226)	GI50 (NCI-H23)	GI50 (NCI-H460)	GI50 (NCI-H522)	GI50 (OVCAR-8)	GI50 (RPMI-8226)	GI50 (RXF 393)	GI50 (SN12C)	GI50 (SNB-19)	GI50 (TK-10)	GI50 (UACC-62)
O=C(CCN1CCCC1)CC(c1ccccc1)c1c(O)c2ccccc2oc1=O (stereo not given)	> 100 µM (inactive)	> 100 µM (inactive)	> 100 µM (inactive)	> 100 µM (inactive)	> 100 µM (inactive)	> 100 µM (inactive)	> 100 µM (inactive)	> 100 µM (inactive)	> 100 µM (inactive)	> 100 µM (inactive)	> 100 µM (inactive)	> 100 µM (inactive)	> 100 µM (inactive)	> 100 µM (inactive)	> 100 µM (inactive)	> 100 µM (inactive)	> 100 µM (inactive)
Cn1c(N)nc(=O)c2c1N(C1OC(CO)C(O)C1O)CN2Cc1ccccc1 (stereo not given)	> 100 µM (inactive)	> 100 µM (inactive)	> 100 µM (inactive)	> 100 µM (inactive)	> 100 µM (inactive)	> 100 µM (inactive)	> 100 µM (inactive)	> 100 µM (inactive)	> 100 µM (inactive)	> 100 µM (inactive)	> 100 µM (inactive)	> 100 µM (inactive)	> 100 µM (inactive)	> 100 µM (inactive)	> 100 µM (inactive)	> 100 µM (inactive)	> 100 µM (inactive)
CC(=O)c1sc(-c2nc(C)c(C(=O)/C=C\c3ccc(/C=C\C(=O)c4sc(-c5nc(C)c(C(C)=O)s5)nc4C)cc3)s2)nc1C	> 100 µM (inactive)	> 100 µM (inactive)	> 100 µM (inactive)	> 100 µM (inactive)	> 100 µM (inactive)	> 100 µM (inactive)	> 100 µM (inactive)	> 100 µM (inactive)	> 100 µM (inactive)	> 100 µM (inactive)	> 100 µM (inactive)	50.5 µM (inactive)	> 100 µM (inactive)	> 100 µM (inactive)	> 100 µM (inactive)	> 100 µM (inactive)	85.9 µM (inactive)
Cc1cc(Cl)ccc1N1C(=O)C(=O)C(c2nc3ccccc3s2)/C(=N\NC(=O)c2ccccc2O)C1=O (stereo not given)	> 100 µM (inactive)	> 100 µM (inactive)	> 100 µM (inactive)	> 100 µM (inactive)	> 100 µM (inactive)	> 100 µM (inactive)	> 100 µM (inactive)	> 100 µM (inactive)	> 100 µM (inactive)	> 100 µM (inactive)	> 100 µM (inactive)	> 100 µM (inactive)	> 100 µM (inactive)	> 100 µM (inactive)	> 100 µM (inactive)	> 100 µM (inactive)	> 100 µM (inactive)
[O-][S+]1c2ccccc2N=C(c2cccs2)CC1c1ccccc1O (stereo not given)	60.8 µM (inactive)	> 100 µM (inactive)	96.6 µM (inactive)	> 100 µM (inactive)	16.5 µM (inactive)	> 100 µM (inactive)	> 100 µM (inactive)	67.9 µM (inactive)	> 100 µM (inactive)	65.2 µM (inactive)	> 100 µM (inactive)	> 100 µM (inactive)	63.1 µM (inactive)	> 100 µM (inactive)	> 100 µM (inactive)	> 100 µM (inactive)	56.2 µM (inactive)
CN(C)CC(C)(C)C(=O)/C=C/c1ccc(/C=C/C(=O)C(C)(C)CN(C)C)cc1	0.28 µM (active)	1.45 µM (inactive)	1.66 µM (inactive)	0.51 µM (active)	1.71 µM (inactive)	1.04 µM (active)	2.23 µM (inactive)	1.91 µM (inactive)	3.78 µM (inactive)	0.136 µM (active)	2.39 µM (inactive)	1.97 µM (inactive)	1.17 µM (inactive)	1.42 µM (inactive)	1.96 µM (inactive)	1.64 µM (inactive)	1.74 µM (inactive)
O=C1c2ccccc2C(=O)N1/N=C\c1ccc(Br)cc1	> 10 µM (inactive)	> 10 µM (inactive)	> 10 µM (inactive)	> 10 µM (inactive)	> 10 µM (inactive)	> 10 µM (inactive)	> 10 µM (inactive)	> 10 µM (inactive)	> 10 µM (inactive)	> 100 µM (inactive)	> 10 µM (inactive)	> 10 µM (inactive)	> 10 µM (inactive)	> 10 µM (inactive)	> 10 µM (inactive)	> 10 µM (inactive)	> 10 µM (inactive)
CCOC(=O)C12C(C(=O)OC)=C(C)N(NC(=O)Nc3ccccc3)C1(N)N(NC(=O)Nc1ccccc1)C(C)=C2C(=O)OC (stereo not given)	41.5 µM (inactive)	43.5 µM (inactive)	25.2 µM (inactive)	24.5 µM (inactive)	41.2 µM (inactive)	20.5 µM (inactive)	> 100 µM (inactive)	37.4 µM (inactive)	40.3 µM (inactive)	20.9 µM (inactive)	27.7 µM (inactive)	25.9 µM (inactive)	29.2 µM (inactive)	> 61.5 µM (inactive)	29.4 µM (inactive)	36.1 µM (inactive)	18 µM (inactive)
O=C(O)CCC(N/C=C1/N=C(c2ccccc2)OC1=O)C(=O)O (stereo not given)	> 100 µM (inactive)	> 100 µM (inactive)	> 100 µM (inactive)	> 100 µM (inactive)	> 100 µM (inactive)	> 100 µM (inactive)	> 100 µM (inactive)	> 100 µM (inactive)	> 100 µM (inactive)	> 100 µM (inactive)	> 100 µM (inactive)	> 100 µM (inactive)	> 100 µM (inactive)	> 100 µM (inactive)	> 100 µM (inactive)	> 100 µM (inactive)	> 100 µM (inactive)
O=C(NCC(O)CNC(=O)C(F)(F)F)C(F)(F)F	> 100 µM (inactive)	> 100 µM (inactive)	> 100 µM (inactive)	> 100 µM (inactive)	> 100 µM (inactive)	> 100 µM (inactive)	> 100 µM (inactive)	> 100 µM (inactive)	> 100 µM (inactive)	> 100 µM (inactive)	> 100 µM (inactive)	> 100 µM (inactive)	> 100 µM (inactive)	> 100 µM (inactive)	> 100 µM (inactive)	> 100 µM (inactive)	> 100 µM (inactive)
CC(C)N(C(=O)C12C3C4C5(C#N)C3C1(I)C5C42I)C(C)C (stereo not given)	> 92.7 µM (inactive)	> 100 µM (inactive)	> 100 µM (inactive)	> 73.8 µM (inactive)	> 100 µM (inactive)	> 66.7 µM (inactive)	> 100 µM (inactive)	> 100 µM (inactive)	> 78 µM (inactive)	> 100 µM (inactive)	> 100 µM (inactive)	> 49.8 µM (inactive)	> 100 µM (inactive)	> 68.2 µM (inactive)	> 100 µM (inactive)	> 100 µM (inactive)	> 100 µM (inactive)
COC(=O)[C@@]12C(=O)CCC(=O)C1C1C(=CC2C)O[C@@H]2OC3(CCCCC3)O[C@H]12 (stereo not given in full)	58.3 µM (inactive)	99.8 µM (inactive)	> 100 µM (inactive)	47.6 µM (inactive)	> 94.6 µM (inactive)	> 100 µM (inactive)	> 100 µM (inactive)	> 72.4 µM (inactive)	> 100 µM (inactive)	18.6 µM (inactive)	42.2 µM (inactive)	19 µM (inactive)	69.2 µM (inactive)	> 100 µM (inactive)	> 89.5 µM (inactive)	> 100 µM (inactive)	> 88.7 µM (inactive)
N#CN=C(NCc1ccccc1)NCc1ccccc1	> 47.4 µM (inactive)	> 100 µM (inactive)	> 100 µM (inactive)	> 100 µM (inactive)	> 100 µM (inactive)	> 100 µM (inactive)	> 100 µM (inactive)	> 100 µM (inactive)	> 64.7 µM (inactive)	> 100 µM (inactive)	> 100 µM (inactive)	> 100 µM (inactive)	> 48.6 µM (inactive)	> 100 µM (inactive)	> 100 µM (inactive)	> 100 µM (inactive)	> 100 µM (inactive)
Cc1ccccc1SC(/C=C/NNC1=NN=C(c2ccccc2)C(c2ccccc2)N1)c1ccccc1 (stereo not given)	37.5 µM (inactive)	27.2 µM (inactive)	40.6 µM (inactive)	29.8 µM (inactive)	27.4 µM (inactive)	52 µM (inactive)	18.3 µM (inactive)	17.5 µM (inactive)	34.9 µM (inactive)	33.8 µM (inactive)	13.7 µM (inactive)	27.5 µM (inactive)	11.1 µM (inactive)	61.2 µM (inactive)	50 µM (inactive)	17.8 µM (inactive)	29.4 µM (inactive)
CSC(=S)c1ccc(C(=S)SC)cc1	> 100 µM (inactive)	> 100 µM (inactive)	> 100 µM (inactive)	> 100 µM (inactive)	> 100 µM (inactive)	> 100 µM (inactive)	> 100 µM (inactive)	> 100 µM (inactive)	> 100 µM (inactive)	> 100 µM (inactive)	> 100 µM (inactive)	> 100 µM (inactive)	> 100 µM (inactive)	> 100 µM (inactive)	> 100 µM (inactive)	> 100 µM (inactive)	> 100 µM (inactive)
